Experimental data reported in patent publication USRE45173E1, “Inhibitors of CYP 17” (Novartis AG, priority 2009, dated 2014).
Structures can show the parent of a compound that is named as a salt.

The molecules below were run against recombinant human CYP17 enzyme (Homo sapiens (Human), UniProt P05093) (assay: Cytochrome P450, 17-20 lyase (CYP17-lyase) assay, tritiated acetic acid release from 17-α-hydroxy pregnenolone [21-3H]). Settings: human CYP17, substrate 0.25 μM; read-out: Lyase IC 50 nM Human/Rat (Human).
recombinant human CYP17 enzyme, sequence (P05093 whole entry): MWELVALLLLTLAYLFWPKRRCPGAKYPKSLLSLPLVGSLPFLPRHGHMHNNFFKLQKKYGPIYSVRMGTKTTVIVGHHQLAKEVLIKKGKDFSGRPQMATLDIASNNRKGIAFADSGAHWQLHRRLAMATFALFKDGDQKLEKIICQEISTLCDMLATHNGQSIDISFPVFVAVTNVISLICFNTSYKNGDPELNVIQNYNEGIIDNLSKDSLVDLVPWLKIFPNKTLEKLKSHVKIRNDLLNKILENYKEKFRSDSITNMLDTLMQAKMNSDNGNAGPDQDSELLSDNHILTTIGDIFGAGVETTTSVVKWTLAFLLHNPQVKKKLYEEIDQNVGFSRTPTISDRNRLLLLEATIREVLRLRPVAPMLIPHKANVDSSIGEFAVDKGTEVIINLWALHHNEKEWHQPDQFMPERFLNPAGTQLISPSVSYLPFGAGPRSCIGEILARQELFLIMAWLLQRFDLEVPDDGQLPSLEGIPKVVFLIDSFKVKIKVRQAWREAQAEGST
Type: biochemical
Excerpt: Assay method was adopted from a published protocol with some modifications to suit our requirements (Dmitry N Grigoryev et al, Analytical Biochemistry, (1999) 267, 319-330). […] Chloroform extraction removes the radioactive steroids and acetic acid is taken into aqueous layer. The tritiated acetic acid released in the assay thus extracted is quantified to determine the enzyme activity. […] The purified cell membrane preparations were used as the source for Human CYP17 enzyme. […] O, Nijar, et al., J Med Chem, (1998) 41, 902-912). […] Km for this substrate was determined by monitoring the tritiated acetic acid release as a function of substrate concentration. […] For the Km determination, the data was fit to a hyperbolic equation (Graphpad Prism® software IV). […] (Dmitry N. Grigoryev et al, Analytical Biochemistry (1999) 267, 319-330) […] NADPH is used at a final concentration of 4.2 mM. Total reaction volume was made up to 50 μL with 50 mM Phosphate buffer pH 7.5. The reaction mixture was incubated at room temperature for 90 minutes with gentle shaking. The reaction was stopped by the addition of 100 μL of buffer. 500 μL of 5% freshly prepared activated charcoal was added to the solution and mixed well by vortexing. The samples were centrifuged at 17568×g for 5 minutes. (14000 rpm). The supernatant was carefully transferred to fresh tube and 1.3 mL of scintillation fluid was added, mixed by vortexing. The radioactivity was measured in a 1450 MicroBeta TriLux™ scintillation counter from Wallac-Perkin Elmer®, USA. The measurements were carried out in 2.0 mL Eppendorforf™ tubes. […] The amount of tritiated acetic acid released is proportional to the lyase activity. Percent lyase activity in presence of inhibitor was calculated using the formula given below. […] Enzyme reaction in presence of inhibitor. • Positive control: […] For IC50 determination, the % inhibition was plotted as a function of inhibitor concentration. The data was fitted to sigmoidal equation using Graphpad Prism® software IV to generate IC50 values.
For `O=C1N(c2ccc3ncsc3c2)CCN1c1cnccc1CO` [Example 126A, 1-Benzothiazol-6-yl-3-(4-hydroxymethyl-pyridin-3-yl)-imidazolidin-2-one], the IC50 was 25 nM.
`Cc1ccncc1N1CCN(c2c[nH]c3ccccc23)C1=O` [Example 107A, 1-(1H-Indol-3-yl)-3-(4-methyl-pyridin-3-yl)-imidazolidin-2-one] showed an IC50 of 334 nM.
`Cc1ccncc1N1CCN(c2ccc3c(C4CC4)n[nH]c3c2)C1=O` [Example 161A, 1-(3-Cyclopropyl-1H-indazol-6-yl)-3-(4-methylpyridin-3-yl)imidazolidin-2-one] gave an IC50 of 82 nM.
`O=C1N(c2ccc3ncsc3c2)CCN1c1cnccc1CNC1CC1` [Example 178A, 1-Benzothiazol-6-yl-3-(4-cyclopropylaminomethyl-pyridin-3-yl)-imidazolidin-2-one] was tested, and the IC50 was 19 nM.
Molecule `Cc1ccncc1N1CCN(c2cnsc2)C1=O` [Example 190A, 1-Isothiazol-4-yl-3-(4-methyl-pyridin-3-yl)-imidazolidin-2-one] has an IC50 of 89 nM.
With `Cc1ccncc1N1CCN(c2ccc3c(N)nn(C)c3c2)C1=O` [Example 143A, 1-(3-Amino-1-methyl-1H-indazol-6-yl)-3-(4-methyl-pyridin-3-yl)-imidazolidin-2-one] the IC50 was 116 nM.
For `Cc1ccncc1N1CCN(c2ccc(F)c(C(F)F)c2)C1=O` [Example 91A, 1-(3-Difluoromethyl-4-fluoro-phenyl)-3-(4-methyl-pyridin-3-yl)-imidazolidin-2-one], the IC50 was 4.3 nM.
Molecule `Cc1ccncc1N1CCN(c2ccc3cc[nH]c3c2)C1=O` [Example 144A, 1-(1H-Indol-6-yl)-3-(4-methyl-pyridin-3-yl)-imidazolidin-2-one] has an IC50 of 174 nM.
In the case of `Cc1ccncc1N1CCN(c2ccn3ccnc3c2)C1=O` [Example 73A, 1-imidazolidin-2-one], the IC50 is reported as 109 nM.
`Cc1ccncc1N1CCN(c2ccnc(C(F)(F)F)c2)C1=O` [Example 148A, 1-(4-Methyl-pyridin-3-yl)-3-(2-trifluoromethyl-pyridin-4-yl)-imidazolidin-2-one] gave an IC50 of 25 nM.
With `O=C1N(c2ccc3ncsc3c2)CCN1c1cnccc1C(F)(F)F` [Example 128A, 1-Benzothiazol-6-yl-3-(4-trifluoromethyl-pyridin-3-yl)-imidazolidin-2-one] the IC50 was 44 nM.
Work on `Cc1ccncc1N1CCN(c2csc(C(F)F)c2)C1=O` [Example 78A, 1-(5-Difluoromethyl-thiophen-3-yl)-3-(4-methyl-pyridin-3-yl)-imidazolidin-2-one] yielded an IC50 of 9.3 nM.
`Cc1ccncc1N1CCN(c2ccc3c(c2)CCC3)C1=O` [Example 138A, 1-Indan-5-yl-3-(4-methyl-pyridin-3-yl)-imidazolidin-2-one] gave an IC50 of 13 nM.
With `Cc1cc(Cl)ccc1N1CCN(c2cnccc2C)C1=O` [Example 89A, 1-(4-Chloro-2-methyl-phenyl)-3-(4-methyl-pyridin-3-yl)-imidazolidin-2-one] the IC50 was 326 nM.
With `Cc1ccncc1N1CCN(c2cccc(Cl)c2F)C1=O` [Example 86A, 1-(3-Chloro-2-fluoro-phenyl)-3-(4-methyl-pyridin-3-yl)-imidazolidin-2-one] the IC50 was 1200 nM.
`Cc1cccc(N2CCN(c3cnccc3C(F)(F)F)C2=O)c1` [Example 131A, 1-m-Tolyl-3-(4-trifluoromethyl-pyridin-3-yl)-imidazolidin-2-one] showed an IC50 of 103 nM.
`Cc1ccncc1N1CCN(c2ccc3c(=O)[nH][nH]c3c2)C1=O` [Example 135A, 6-[3-(4-Methyl-pyridin-3-yl)-2-oxo-imidazolidin-1-yl]-1,2-dihydro-indazol-3-one] showed an IC50 of 15.9 nM.
In the case of `Cc1ccncc1-n1ccn(-c2ccc(F)c(C(F)F)c2)c1=O` [Example 91B, 1-(3-Difluoromethyl-4-fluoro-phenyl)-3-(4-methyl-pyridin-3-yl)-1,3-dihydro-imidazol-2-one], the IC50 is reported as 22 nM.
With `Cc1ccncc1N1CCN(c2ccc(C#N)c(Cl)c2)C1=O` [Example 112A, 2-Chloro-4-[3-(4-methyl-pyridin-3-yl)-2-oxo-imidazolidin-1-yl]-benzonitrile] the IC50 was 28 nM.
`Cc1ccncc1N1CCN(c2ccc3[nH]cnc3c2)C1=O` [Example 108A, 1-(1H-Benzoimidazol-5-yl)-3-(4-methyl-pyridin-3-yl)-imidazolidin-2-one] gave an IC50 of 363 nM.
`Cc1ccncc1-n1ccn(-c2ccc3sccc3c2)c1=O` [Example 139A, 1-Benzo[b]thiophen-5-yl-3-(4-methyl-pyridin-3-yl)-1,3-dihydro-imidazol-2-one] gave an IC50 of 83 nM.
`Cc1ccncc1N1CCN(c2ccc3nccnc3c2)C1=O` [Example 77A, 1-(4-Methyl-pyridin-3-yl)-3-quinoxalin-6-yl-imidazolidin-2-one] showed an IC50 of 195 nM.
Molecule `Cc1ccncc1N1CCN(c2csc3ccccc23)C1=O` [Example 109A, 1-Benzo[b]thiophen-3-yl-3-(4-methyl-pyridin-3-yl)-imidazolidin-2-one] has an IC50 of 158 nM.
For `CC(=O)Nc1ccncc1N1CCN(c2ccc3ncsc3c2)C1=O` [Example 150A, N-[3-(3-Benzothiazol-6-yl-2-oxo-imidazolidin-1-yl)-pyridin-4-yl]-acetamide], the IC50 was 496 nM.
Molecule `Cc1ccncc1N1CCN(c2ccc3nccn3c2)C1=O` [Example 94A, 1-Imidazo[1,2-a]pyridin-6-yl-3-(4-methyl-pyridin-3-yl)-imidazolidin-2-one] has an IC50 of 110 nM.
`Cc1cn2cc(N3CCN(c4cnccc4C)C3=O)ccc2n1` [Example 104A] was tested, and the IC50 was 1990 nM.
`Cc1ccncc1N1C(=O)N(c2ccc3ncsc3c2)CC1(C)C` [Example 165A, 1-Benzothiazol-6-yl-4,4-dimethyl-3-(4-methyl-pyridin-3-yl)-imidazolidin-2-one] showed an IC50 of 1150 nM.
Molecule `Cc1ccncc1N1CCN(c2ccc3[nH][nH]c(=O)c3c2)C1=O` [Example 117A, 5-[3-(4-Methyl-pyridin-3-yl)-2-oxo-imidazolidin-1-yl]-1,2-dihydro-indazol-3-one] has an IC50 of 94 nM.
Molecule `Cc1ccncc1N1CCN(c2csc3ccncc23)C1=O` [Example 136A, 1-(4-Methyl-pyridin-3-yl)-3-thieno[3,2-c]pyridin-3-yl-imidazolidin-2-one] has an IC50 of 500 nM.
With `Cc1ccncc1N1CCN(c2ccc(F)c(Cl)c2)C1=O` [Example 46A, 1-(3-Chloro-4-fluoro-phenyl)-3-(4-methyl-pyridin-3-yl)-imidazolidin-2-one] the IC50 was 10 nM.
Molecule `Cc1ccncc1N1CCN(c2ccc(C(F)(F)F)cc2)C1=O` [Example 50A] has an IC50 of 51 nM.

Same assay, conditions: human CYP17, substrate 0.25 μM; read-out: Lyase IC 50 Human/Rat (Human)
With `O=C1N(c2ccc3ncsc3c2)CCN1c1ccccn1` [Example 191A, 1-Benzothiazol-6-yl-3-pyridin-2-yl-imidazolidin-2-one] the IC50 was > 10000 nM.
In the case of `CC(=O)Nc1cc(N2CCN(c3cnccc3C)C2=O)ccn1` [Example 96A], the IC50 is reported as > 10000 nM.
With `Cc1ccncc1N1CCN(c2ccc3c(c2)ncn3C)C1=O` [Example 116A, 1-(1-Methyl-1H-benzoimidazol-5-yl)-3-(4-methyl-pyridin-3-yl)-trifluoroacetic Acid] the IC50 was > 10000 nM.

Same assay, conditions: read-out: Lyase IC 50 nM Human/Rat (Human)
`Cc1c(N2CCN(c3ccc4ncsc4c3)C2=O)cncc1C(F)(F)F` [Example 153A, 1-(benzo[d]thiazol-6-yl)-3-(4-methyl-5-(trifluoromethyl)pyridin-3-yl)imidazolidin-2-one, Trifluoroacetic Acid Salt] showed an IC50 of 280 nM.

Same assay, conditions: substrate varied from 0.03125 μM to 1 μM, hyperbolic fit; read-out: Km (Michaelis Menton constant) of the substrate
Work on `CC(=O)C1(O)CCC2C3CC=C4CC(O)CCC4(C)C3CCC21C` (stereo not drawn) [17-α-hydroxy pregnenolone [21-3H], reference compound] yielded a Km of 0.25 µM.
